Reference: patent US20260234630A1, “Methods for Treating Multiple Myeloma” (Celgene Corporation, priority 2022, published 2026)

Legend:
Type in all cases: cell-based
UHRF1 = assay: Immunocytochemistry assay of UHRF1 in H929 cells; details: 48 hours after 1 μM POM
Procedure: FIG. 6A-6D. […] (6A) Immunocytochemistry assay of UHRF1 in H929 cells treated with DMSO or 1 μM POM for 48 hrs. (6B) qRT-PCR analysis of UHRF1 gene expression levels in indicated MM cells treated with indicated doses of POM for 3 days. Data was normalized to ACTB. Error bars represent the SEM from duplicate measurements. * P<0.05, ** P<0.01, *** P<0.001, **** P<0.0001 (Two-tailed Student's t-test). (6C) Western blot analysis protein expression of UHRF1, Ikaros, Aiolos, ZFP91 and Celebron in H929 cells treated with 1 μM POM or 0.1 μM CC-220 for 3 days. DMSO, vehicle control. (6D) Western blot analysis protein expression of UHRF1, Ikaros, Aiolos, ZFP91 and Celebron in H929 or RPMI 8226 cells treated with 1 μM POM, 0.1 μM CC-220 or 0.01 μM CC-480 for 3 days. DMSO, vehicle control.

H3K27ac at UHRF1 TSS = assay: ChIP-qPCR of H3K27ac occupancy at UHRF1 gene; details: H929 and MM1.S cells, 1 μM POM, 24 hr
Procedure: FIG. 2A-2E. UHRF1 expression is positively regulated by Ikaros and Aiolos in IMiDs sensitive MM cells. (2A) Western blot analysis protein expression of UHRF1, Ikaros, Aiolos, ZFP91 and Cereblon expression in control [shLuciferase (shLuc)] and cereblon knockdown (shCRBN) H929 cells treated with DMSO and 1 μM POM for 3 days. GAPDH, loading control. Arrow head, UHRF1. (2B) qRT-PCR analysis of UHRF1 gene expression levels in cells as in (2A). Data was normalized to ACTB. Error bars represent the SEM of technical duplicates. *** P<0.001 (Two-tailed unpaired Student's t-test). […]
ChIP-qPCR was performed using ChIP-IT Express Enzymatic kit (Active Motif) according to the manufacture manual with some modifications. […] DNA was purified using a PCR purification kit (Qiagen) and analyzed by qPCR using the Power SYBR Green PCR Master Mix.
Procedures afterward were performed according to the manufacture manual. Eluted DNA was purified using a PCR purification kit (Qiagen) and analyzed by quantitative real-time PCR on the Viia 7 Real Time PCR System using the Power SYBR Green PCR master mix (Applied Biosystems). Statistical differences were calculated using a […] unpaired Student's t-test.

H3 and H3K27ac = assay: Western blot of global histone H3 and H3K27ac levels; details: H929 and MM1.S cells, 1 μM POM, 24 hr
Procedure: FIG. 7A-7B. UHRF1 expression is positively regulated by Ikaros, Aiolos and ZFP91 in MM1.S cells. (7A) Western blot analysis protein expression of UHRF1, Ikaro and Aiolos in stably transduced MM1.S cells after Dox induction (0, 20, or 50 ng/ml) for 3 days of non-target shRNA (shNT) or shRNAs targeting Ikaros (shIKZF1) or Aiolos (shIKZF3). (7B) Western blot analysis histone H3 and H3K27ac levels from H929 and MM1.S cells treated with DMSO or 1 μM POM for 24 hr.
Cells were lysed with cell lysis buffer (50 mM TrisHCl pH7.4, 250 mM NaCl, 0.5% Triton X100, 10% glycerol) supplemented with protease inhibitor cocktail. Cell lysates were subjected to sonication to breakdown nuclei and reduce viscosity caused by released genomic DNA. The protein concentration was measured by a Bradford Protein Assay (Bio-Rad). Samples were mixed with SDS sample buffer at 95° C. for 5 minutes. Whole cell lysates were resolved on NuPAGE™ 4-12% Bis-Tris Midi Protein Gels (Invitrogen) and transferred onto nitrocellulose membranes, which were then subjected to blocking in Intercept (TBS) Blocking Buffer (LI-COR). Proteins of interested were detected incubation with primary antibodies listed below at 4° C. overnight. Then the membrane was incubated with either IRDye 680RD goat anti-Mouse IgG (H+L) or IRDye 800CW goat anti-Rabbit IgG (H+L) (1:10,000; LI-COR). Bends were visualized by Odyssey Imaging System (LI-COR).

SMILES: Nc1cccc2c1C(=O)N(C1CCC(=O)NC1=O)C2=O (stereo not drawn) [POM, pomalidomide]
- UHRF1 protein by immunocytochemistry (UHRF1): nearly undetectable
- H3K27ac level at the UHRF1 TSS (H3K27ac at UHRF1 TSS): drastically reduced
- global levels of H3 and H3K27ac (H3 and H3K27ac): not affected
